Source: patent US4308273A, “1,6-Naphthyridine derivatives, and antidinic and cerebral circulation improver containing such derivatives” (Nippon Kayaku Kabushiki Kaisha, priority 1978, dated 1981)
Where two headings read alike, the source gives them in different places.

Key:
[1] = Inhibition of spontaneous nystagmus produced by unilateral destruction of the labyrinth (anti-vertigo action); assay type: in vivo; details: cats
Experimental: (1) It is well known that vertigo resulting from the disturbance of the peripheral labyrinth is accompanied by nystagmus. So, we acutely produced the spontaneous nystagmus by unilateral destruction of the labyrinth in cats and used it as an experimental model of vertigo. a pair of Ag--AgCl cup electrodes was placed laterally to both orbits and an indifferent electrode on the forehead. The nystagmus was recorded through an amplifier. The inhibitory effect of the compounds on the nystagmus was expressed by [formula] where A is the frequency of the nystagmus in ten seconds before administration of the compounds and B is the frequency of the nystagmus at the maximum inhibitory point after administration. The duration of the effect was also measured. Compounds dissolved in saline were injected into the femoral vein. Betahistine and diphenidol were used as standard drugs.
A: Doses of compounds injected intraveneously.
B: Effect of compounds on the nystagmus expressed as inhibitory
C: Duration of the effect of compounds

[2] = Acute toxicity (LD50) by intraperitoneal injection; details: mouse, in vivo, ip; male mice, intraperitoneal injection (Table 3)
Experimental: LD50 values of the compounds by intraperitoneal injection in mice were determined.

[3] = Effect on the hexobarbital-induced sleeping time; details: male mice, 50 mg/kg subcutaneously, 15 min prior to sodium hexobarbital i.p.
Experimental: (§1) Groups consisted of 10 male-mice were administered the compounds or saline subcutaneously 15 min. prior to an intraperitoneal injection of sodium hexobarbital. Sleeping time for each animal in a group was measured. The averaged value of sleeping time in each group was calculated. The action of the sleeping time was expressed by the percentage of the sleeping time in the compound-treated groups to that in the saline-treated group.
(§2) D: Sleeping time of the compound (50 mg/kg, subcutaneously)treated groups
(§3) expressd as percentage to that of the control group.

[4] = mouse, in vivo, 50 mg/kg
Experimental: as §1, §2, §3

[5] = Felis catus, iv, 6 mg/kg injected intravenously, read-out: Effect of compounds on the nystagmus expressed as inhibitory percentage

| SMILES | inhibition at 6 mg/kg [1, 5] [%] | inhibition at 12 mg/kg ([1]; Felis catus, iv, 12 mg/kg injected intravenously, read-out: Effect of compounds on the nystagmus expressed as inhibitory percentage) [%] | Duration of the effect of compounds (nystagmus) ([1]; 6 mg/kg injected intravenously) [min] | Duration of the effect of compounds (nystagmus) ([1]; 12 mg/kg injected intravenously) [min] | LD50 [2] [mg/kg] | Sleeping time of the compound treated groups expressed as percentage to that of the control group [3] [%] | Sleeping time of the compound treated groups expressed as percentage to that of the control group [4] [%] |
| --- | --- | --- | --- | --- | --- | --- | --- |
| c1cnc2c(c1)CN(CC1CC1)CC2 [Compound 22] | 85 | 98 | 19 | 35 | 176 | 114.4 |  |
| OC(CCCN1CCCCC1)(c1ccccc1)c1ccccc1 [diphenidol, reference compound] | 70 |  | 45 |  | 105 |  | 253.7 |
